In general, IC50 refers to the midpoint of a concentration-inhibition curve. A word on the MIC: it is the lowest concentration found to suppress growth.

Each structure is given as a SMILES string. Values after ≈ are worked out from the molar mass of the structure shown. Read-outs that look alike come from different tables or passages of the source.

The test system of one assay is Bacteroides fragilis. As to the kind of experiment: anaerobic liquid culture growth inhibition, OD 650 nm. It counts as cell-based. Conditions: read-out: IC50 Bacteroides fragilis.
The test system of assay [1] is P. gingivalis strain 2561. The experiment in a line: minimum inhibitory concentration by addition to plating medium. Conditions: for MIC: Porphyromonas gingivalis, 2561, 168 h. It counts as cell-based. On the procedure: (§1) Solutions of the agents were tested for activity against Escherichia coli strain DH5α by a zone inhibition method, and against P. gingivalis strain 2561 by addition to plating medium to determine minimum inhibitory concentrations (M/C). For the zone inhibition study, a suspension of E. coli was spread on the surface of an agar plate. A 3 mm diameter paper disk was placed on the seeded agar surface, and 10 μl of solution of each compound formulated at 1 mg/ml was added to the disk. Plates were incubated overnight at 37° C. The radius of the zone of inhibition was measured from the center of the disk to the edge of the E. coli bacterial lawn. For determination of MIC, drug solutions were mixed with plating medium to produce a range of final drug concentrations. Media with drug were plated in the wells of 24-well plates. A drop of bacterial suspension containing 2-5×10^2 CFU P. gingivalis was placed on each well. Plates were incubated 1 week in an anaerobic chamber at 37° C.

The next assay relates to Bacteroides levii. The experiment in a line: anaerobic liquid culture growth inhibition, OD 650 nm. The class given is cell-based. Conditions: Porphyromonas levii, read-out: IC50 Bacteroides levii.
In assay [2] the test system is Fusobacterium necrophorum. The description is as above. The class given is cell-based. As to conditions: read-out: IC50 Fusobacterium necrophorum.
Assay [3] relates to Porphyromonas gingivalis RB-22D-1. The assay is described as above. It counts as cell-based.
For assay [4], the system named is Peptostreptococcus anaerobius. The assay is described as above. It counts as cell-based. Conditions: read-out: IC50 Peptostreptococcus anaerobius.
Assay [5] relates to Escherichia coli strain DH5α. As to the kind of experiment: zone inhibition method on agar plate. Conditions: 10 μl of 1 mg/ml on 3 mm paper disk, overnight 37° C., radius from center of disk; for zone of inhibition at 1000 µg/mL: Escherichia coli, read-out: E. coli Clear Zone. It counts as cell-based. How it is done: as §1
A further assay relates to Clostridium perfringens. As to the kind of experiment: microbe, parasite or virus in culture. It counts as cell-based. Conditions: read-out: IC50 Clostridium perfringens.
For assay [6], the system named is Porphyromonas gingivalis 2561. As to the kind of experiment: anaerobic liquid culture growth inhibition, OD 650 nm. It counts as cell-based.
A further assay relates to Fusobacterium nucleatum. The description is as above. The class given is cell-based. Conditions: read-out: IC50 Fusobacterium nucleatum.
The next assay deals with A. act and/or P. gin. As to conditions: background summary; cited from earlier work.
Assay [7] deals with anaerobic bacterial species. The experiment in a line: anaerobic liquid culture growth inhibition, whole panel. The class given is cell-based. Conditions: all species of Table 4; read-out: susceptibilities (IC50) of the various anaerobic species. How it is done:
The concentrations of the various preferred substituted phenazine-5,10-dioxide compounds necessary to inhibit growth by 50% (IC50 values) were determined for a variety of anaerobic bacterial species. Compounds were individually diluted into liquid growth media, which along with suspensions of bacterial monocultures were added to the wells of 96-well plates. Cultures were incubated anaerobically overnight, and growth was assessed by measuring optical density at 650 nm. IC50 values were determined as the compound concentration producing a turbidity reading equal to 50% of the maximum. Again, results with Tetracycline are shown for comparison.

For another assay, the system named is P. gingivalis. As to the kind of experiment: bone loss after oral colonization with P. gingivalis in mice, systemic administration. The class given is in vivo, BALB/c mice. How it is done: An animal model for testing the antimicrobial activity of the invention against P. gingivalis was conducted by inducing oral colonization of the microbe in BALB/c mice. Drug (2-methylphenazine-5,10-dioxide or Tetracycline) or control (2.5% cyclodextran) was administered intraperitoneally once each day for 25 days (2-methylphenazine-5,10-dioxide) or 40 days (Tetracycline). On the day following the last dose administration, the rear molars of the mice were swabbed and the swabs incubated in a growth medium to assess the presence of P. gingivalis. Mice were then sacrificed and jaw bones harvested for evaluation of bone loss.

Assay [8] relates to purified collagenase from P. gingivalis. As to the kind of experiment: anti-collagenase activity, 3H-collagen hydrolysis. The class given is biochemical. Conditions: for % Inhibition of collagenase: 24 h at 25° C. On the procedure: Collagenase activity in the presence of the preferred compound 2-aminophenazine-5,10-dioxide and in the presence of Tetracycline were measured by incubating ^3 H-collagen with purified collagenase from P. gingivalis using increasing drag concentrations. After 24 h at 25° C., unhydrolyzed collagen fibers were removed from the mixture by centrifugation, and the specific activity of ^3 H in the supernatant quantified as a measure of hydrolyzed collagen. Percent inhibition was determined by subtracting the value in the presence of test compound from the control value, then dividing this quantity by the control value [(control-compound)/control×100].

Setting [9] is: RB22D1, anaerobic overnight, OD 650 nm, read-out: IC50 Porphyromonas gingivalis RB-22D-1.
Where [10] appears, read: Porphyromonas gingivalis, 2561, anaerobic overnight, OD 650 nm, read-out: IC50 Porphyromonas gingivalis 2561.
Setting [11] is: MIC on a molar basis, read-out: P. gingivalis MIC.
[12] abbreviates: complete inhibition of growth, 1 week anaerobic, 37° C., read-out: P. gingivalis MIC.

As for `[O-][n+]1c2ccccc2[n+]([O-])c2cc(O)c(O)cc21` [2,3-dihydroxyphenazine-5,10-dioxide], the IC50 in the assay on Bacteroides fragilis (anaerobic overnight, OD 650 nm) was more than 10 µg/mL; in the assay on Bacteroides levii (anaerobic overnight, OD 650 nm), more than 10 µg/mL; in assay [2] (anaerobic overnight, OD 650 nm), more than 10 µg/mL; in [3] (setting [9]), 2 µg/mL (≈ 8.19 µM); in [4] (anaerobic overnight, OD 650 nm), more than 10 µg/mL; with Clostridium perfringens, more than 10 µg/mL. For the same molecule, the IC50 in [6] (setting [10]) was 5 µg/mL (≈ 20.5 µM); in the assay on Fusobacterium nucleatum (anaerobic overnight, OD 650 nm), more than 10 µg/mL. Besides, in assay [1], the “antimicrobial activity against P. gingivalis” value is “inactive”. Further, in assay [1] (MIC on a molar basis), the “P. gingivalis MIC (μM)” value was “inactive”. Also, the “P. gingivalis MIC” value in [1] (complete inhibition of growth, 1 week anaerobic, 37° C.) is “inactive”. Besides, the “E. coli Clear Zone” value in assay [5] is “inactive”.

For the molecule `COc1ccc2c(c1)[n+]([O-])c1ccc(N)cc1[n+]2[O-]` [2-amino-7-methoxyphenazine-5,10-dioxide, 2-amino,7-methoxyphenazine-5,10-dioxide], the IC50 in [3] (setting [9]) turned out to be 0.08 µg/mL (≈ 0.311 µM); in assay [6] (setting [10]) it was 0.015 µg/mL (≈ 0.0583 µM).

On to `[O-][n+]1c2ccccc2[n+]([O-])c2c3cccnc3c(O)cc21` [2-hydroxy-3,4-iminopropylphenazine-5,10-dioxide], for which the 50% inhibitory concentration (IC50) in the assay on Bacteroides fragilis (anaerobic overnight, OD 650 nm) came out at 1 µg/mL (≈ 3.58 µM); in the assay with Bacteroides levii (anaerobic overnight, OD 650 nm), 2 µg/mL (≈ 7.16 µM); in assay [2] (anaerobic overnight, OD 650 nm), 6.5 µg/mL (≈ 23.3 µM); in assay [3] (setting [9]), 0.18 µg/mL (≈ 0.645 µM); in assay [4] (anaerobic overnight, OD 650 nm), 0.1 µg/mL (≈ 0.358 µM); in the assay on Clostridium perfringens, 0.1 µg/mL (≈ 0.358 µM). In addition, the half-maximal inhibitory concentration (IC50) in assay [6] (setting [10]) was 0.08 µg/mL (≈ 0.286 µM); with Fusobacterium nucleatum (anaerobic overnight, OD 650 nm) it was more than 10 µg/mL. For the same molecule, the MIC in assay [1] (setting [11]) came to 0.112 µM; in assay [1] (setting [12]) it was 0.031 µg/mL. In [5], the zone of inhibition at 1000 µg/mL is 17 mm.

Take `[O-][n+]1c2ccccc2[n+]([O-])c2cc(O)ccc21` [2-hydroxyphenazine-5,10-dioxide]: the IC50 with Bacteroides fragilis (anaerobic overnight, OD 650 nm) was determined as 5 µg/mL (≈ 21.9 µM); in the assay with Bacteroides levii (anaerobic overnight, OD 650 nm) it was 0.2 µg/mL (≈ 0.876 µM); in assay [2] (anaerobic overnight, OD 650 nm), 0.45 µg/mL (≈ 1.97 µM); in [3] (setting [9]), 0.22 µg/mL (≈ 0.964 µM); in assay [4] (anaerobic overnight, OD 650 nm) it was 0.45 µg/mL (≈ 1.97 µM); with Clostridium perfringens it was 1 µg/mL (≈ 4.38 µM). The IC50 in assay [6] (setting [10]) is 0.62 µg/mL (≈ 2.72 µM); in the assay with Fusobacterium nucleatum (anaerobic overnight, OD 650 nm) it was more than 10 µg/mL. Further, the values for the MIC in assay [1] (setting [11]) and in [1] (setting [12]) were 0.07 µM and 0.016 µg/mL, respectively. In [1] (molar basis), the “concentration range of activity against P. gingivalis” value is “nanomolar concentration range”. In assay [5], the zone of inhibition at 1000 µg/mL was 15 mm.

For the molecule `CC1(C)S[C@@H]2[C@H](NC(=O)[C@H](N)c3ccc(O)cc3)C(=O)N2[C@H]1C(=O)O` [Amoxicillin], in the assay on A. act and/or P. gin, the “Activity against A. act and/or P. gin” value was “ineffective”.

As for `Cc1ncc([N+](=O)[O-])n1CCO` [Metronidazole], the “Activity against A. act and/or P. gin” value with A. act and/or P. gin is “ineffective”.

With `CC1(C)S[C@@H]2[C@H](NC(=O)Cc3ccccc3)C(=O)N2[C@H]1C(=O)O` [Penicillin G], the “Activity against A. act and/or P. gin” value in the assay with A. act and/or P. gin is “ineffective”.

Regarding `CN(C)[C@@H]1C(O)=C(C(N)=O)C(=O)[C@@]2(O)C(O)=C3C(=O)c4c(O)cccc4[C@@](C)(O)[C@H]3C[C@@H]12` [Tetracycline, reference compound], the IC50 in assay [7] is not above 0.1 µg/mL; in the assay with Bacteroides fragilis it was 0.1 µg/mL (≈ 0.225 µM); in the assay with Bacteroides levii it was 0.1 µg/mL (≈ 0.225 µM); in [2], 0.03 µg/mL (≈ 0.0675 µM); in assay [3] (RB22D1, read-out: IC50 Porphyromonas gingivalis RB-22D-1), 0.06 µg/mL (≈ 0.135 µM); in assay [4], 0.03 µg/mL (≈ 0.0675 µM). For the same molecule, the IC50 in the assay with Clostridium perfringens was 0.06 µg/mL (≈ 0.135 µM); in [6] (Porphyromonas gingivalis, 2561, read-out: IC50 Porphyromonas gingivalis 2561), 0.02 µg/mL (≈ 0.045 µM); in the assay with Fusobacterium nucleatum, 0.16 µg/mL (≈ 0.36 µM). Besides, the “Bone Loss (BLU) Average ± SD” value in the assay with P. gingivalis (Bacterial Infection, 5 mg/kg intraperitoneally once each day × 40 d, 0.33 mm = 1 BLU) is on record as 7.21 ± 0.73 BLU. Moreover, the “effect of treatment on bone loss” value in the assay on P. gingivalis (infected mice, IP daily, 25 d (2-methylphenazine-5,10-dioxide) or 40 d (Tetracycline)) was “did not effect the bone loss”. Besides, the MIC in [1] (read-out: P. gingivalis MIC) was 0.5 µg/mL; in [1] (read-out: P. gingivalis MIC (μM)), 1.13 µM. The zone of inhibition at 1000 µg/mL in [5] is 10 mm. The “% Inhibition of collagenase” value was found to be 7.6% in assay [8] (1 μg/ml), 31% in assay [8] (10 μg/ml) and 68% in [8] (100 μg/ml). Besides, the “anti-collagenase IC50” value in assay [8] (estimated from Table 5) is given as “about 56 μg/ml”.

`[O-][n+]1c2ccccc2[n+]([O-])c2ccccc21` [phenazine-5,10-dioxide]: the IC50 with Bacteroides fragilis (anaerobic overnight, OD 650 nm) came to 3 µg/mL (≈ 14.1 µM); with Bacteroides levii (anaerobic overnight, OD 650 nm), 2.5 µg/mL (≈ 11.8 µM); in assay [2] (anaerobic overnight, OD 650 nm), 0.45 µg/mL (≈ 2.12 µM); in assay [4] (anaerobic overnight, OD 650 nm), 0.2 µg/mL (≈ 0.942 µM); in the assay with Clostridium perfringens it was 1 µg/mL (≈ 4.71 µM); in the assay on Fusobacterium nucleatum (anaerobic overnight, OD 650 nm) it was 3.5 µg/mL (≈ 16.5 µM). In addition, the minimal inhibitory concentration (MIC) in assay [1] (setting [11]) stood at 0.296 µM; in assay [1] (setting [12]), 0.063 µg/mL. Also, the zone of inhibition at 1000 µg/mL in assay [5] came out at 19 mm.
